Test results: publication PMC4391872, “Direct Binding of Ledipasvir to HCV NS5A: Mechanism of Resistance to an HCV Antiviral Agent” (PLoS ONE, 2015)
Read-outs that look alike come from different tables or passages of the source.

What was measured:
[1] = target: T1, NS5A-6HIS (full length NS5A, genotype 1b, Con1) (Hepatitis C virus (isolate Con1), UniProt Q9WMX2); assay: competition of 3H-LDV binding, Ni-NTA capture
T1 construct: mature NS5A cut from HCV genome polyprotein; full length residues 1-447 with N-terminal amphipathic helix, C-terminal 6His tag kept; Sf9 baculovirus, C12E8 solubilised, phosphorylated
T1 sequence (Q9WMX2 1973-2419): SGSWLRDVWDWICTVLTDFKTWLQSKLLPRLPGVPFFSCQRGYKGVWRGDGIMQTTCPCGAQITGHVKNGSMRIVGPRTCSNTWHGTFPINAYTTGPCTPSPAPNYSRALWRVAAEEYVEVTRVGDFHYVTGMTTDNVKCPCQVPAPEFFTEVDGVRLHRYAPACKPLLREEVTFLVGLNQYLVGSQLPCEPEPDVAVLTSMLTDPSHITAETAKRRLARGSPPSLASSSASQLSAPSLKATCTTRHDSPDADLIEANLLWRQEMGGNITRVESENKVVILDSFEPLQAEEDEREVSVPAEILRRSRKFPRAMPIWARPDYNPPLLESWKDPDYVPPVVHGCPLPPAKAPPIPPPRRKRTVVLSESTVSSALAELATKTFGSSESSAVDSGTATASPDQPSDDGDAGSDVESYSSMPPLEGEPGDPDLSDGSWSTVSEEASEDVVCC

[2] = target: T1, NS5A-6HIS (full length NS5A, genotype 1b, Con1); assay: competition of 3H-LDV binding, Ni-NTA capture; remark: listed apart in the source
Protocol: competition of 3H-LDV binding, Ni-NTA capture on NS5A-6HIS (full length NS5A, genotype 1b, Con1) | Ki was calculated using the Cheng-Prusoff equation

[3] = target: T1, NS5A-6HIS (full length NS5A, genotype 1b, Con1); assay: radioligand saturation binding, Ni-NTA capture
[4] = target: NS5A-Y93H-6HIS (Y93H mutant of full length NS5A, genotype 1b, Con1, with C-terminal His tag) (Hepatitis C virus genotype 1b, Con1); assay: AUC; sedimentation velocity (42,000 rpm, 3.3 and 6.6 uM) and equilibrium, 20 C, protein in C12E8 micelles, 25 mM Tris pH 7.5, 150 mM NaCl, 0.5 mM TCEP, 0.02% C12E8, 21.1% D2O (density matched to the detergent); self-association

Row | Compound | Ki [2] [nM] | IC50 ([1]; read-out: IC50) [nM] | further results
1 | O=C1N[C@H]2[C@H](CS[C@H]2CCCCC(=O)N2CCC[C@H]2C(=O)Nc2ccc(/C=C/c3ccc(NC(=O)[C@@H]4CCCN4C(=O)Cc4ccccc4)cc3)cc2)N1 [BMS-Biotin] | – | – | IC50 ([1]; read-out: no competition up to 100 μM): > 100000 nM
2 | COC(=O)N[C@H](C(=O)N1CCC[C@H]1c1nc(-c2ccc(-c3ccc(-c4c[nH]c([C@@H]5CCCN5C(=O)[C@@H](NC(=O)OC)C(C)C)n4)cc3)cc2)c[nH]1)C(C)C [daclatasvir] | 499 ± 68.3 | 753 | –
3 | COC(=O)N[C@H](C(=O)N1CC2(CC2)C[C@H]1c1ncc(-c2ccc3c(c2)C(F)(F)c2cc(-c4ccc5nc([C@@H]6[C@H]7CC[C@H](C7)N6C(=O)[C@@H](NC(=O)OC)C(C)C)[nH]c5c4)ccc2-3)[nH]1)C(C)C [ledipasvir] | 98.7 ± 10.2 | 149 | Kd [3]: 58.9 ± 6.6 nM
4 | NS5A-Y93H-6HIS (Y93H mutant of full length NS5A, genotype 1b, Con1, with C-terminal His tag) (natural protein) | – | – | percent dimers [4]: 3%; percent higher order oligomers [4]: 7%
